Structures can show the parent of a compound that is named as a salt.
What follows are compounds tested against T1, ACAT (Homo sapiens, UniProt P35610) (assay: ACAT inhibition: radiolabelled cholesterol oleate production from labelled oleic acid in HepG2 cells). Conditions: concentration required to inhibit 50% of ACAT (cholesterol oleate production vs control).
T1 construct: endogenous in cells; host or cells: HepG2
T1 sequence (P35610 1-550): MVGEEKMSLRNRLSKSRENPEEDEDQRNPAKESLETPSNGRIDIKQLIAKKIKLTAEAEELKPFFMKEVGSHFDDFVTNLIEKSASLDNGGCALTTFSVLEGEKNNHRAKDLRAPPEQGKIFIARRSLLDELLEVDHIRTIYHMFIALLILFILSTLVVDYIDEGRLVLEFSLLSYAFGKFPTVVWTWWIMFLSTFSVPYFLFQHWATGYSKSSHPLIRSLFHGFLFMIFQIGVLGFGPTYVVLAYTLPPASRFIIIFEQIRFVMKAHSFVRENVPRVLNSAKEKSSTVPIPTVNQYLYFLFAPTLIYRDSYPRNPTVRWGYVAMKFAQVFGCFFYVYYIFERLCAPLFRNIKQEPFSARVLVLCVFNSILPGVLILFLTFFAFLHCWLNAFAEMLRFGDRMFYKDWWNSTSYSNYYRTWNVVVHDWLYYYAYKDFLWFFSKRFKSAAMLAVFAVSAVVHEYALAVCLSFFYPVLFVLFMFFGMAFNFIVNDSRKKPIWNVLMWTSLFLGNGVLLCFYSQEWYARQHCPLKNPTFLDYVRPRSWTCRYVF
Type: cell-based
Description: ACAT inhibition of the compounds of the present invention were assayed by the following method. HepG2 cell coming from human hepatic cancer cell was used for assaying ACAT activity. Thus, the assay was effected by adding radioactivity labelled oleic acid-bovine serum albumin complex into an incubation solution of HepG2 cell and measuring the amount of radioactivity labelled cholesterol oleate produced from the radioactivity labelled oeleic acid within the cell. Therefore, the activity of the compound of this invention to inhibit ACAT was obtained by calculating how much percent lowered the productivity of cholesterol oleate in control group containing no test compound by adding the test compound in each concentration (μM) and then expressing IC50 value, namely concentration of a test compound required to inhibit 50% expression of enzyme.

Row | IC50 | Compound
1 | 314 nM | CCCCC[C@@H](CNC(=O)Nc1c(OC(C)C)ncnc1OC(C)C)c1cccc2c1OCO2 [Example 29, (R)-1-[2-(2,3-methylenedioxyphenyl)heptyl]-3-[4,6-di (1-methylethoxy)pyrimidine-5-yl]urea]
2 | 0.9 nM | CCCCCC(CC(=O)Nc1c(C(C)C)cccc1C(C)C)c1cc(N(C)C)cc(OC)c1OC (centres unmarked) [Example 17, N-(2,6-diisopropylphenyl)-3-(2,3-dimethoxy-5-dimethylaminophenyl) octanamide]
3 | 3 nM | CCCCCC(CC(=O)Nc1c(C(C)C)cccc1C(C)C)c1cccc(OC)c1OC (centres unmarked) [Example 2, N-(2,6-Diisopropylphenyl)-3-(2,3-dimethoxyphenyl)octanamide]
4 | 50 nM | CCCCCC(CCC(=O)Nc1c(C(C)C)cccc1C(C)C)c1cccc(OC)c1OC (centres unmarked) [Example 9, N-(2,6-Diisopropylphenyl)-4-(2,3-dimethoxyphenyl) nonanamide]
5 | 101 nM | CCCCC[C@H](CC(=O)Nc1c(C(C)C)ccc(N(C)C)c1C(C)C)c1cccc2c1OCO2 [Example 18, (R)-N-(2,6-diisopropyl-3-dimethylaminophenyl)-3-(2,3-methylenedioxyphenyl) octanamide hydrochloride]
6 | 10 nM | CCCCCC(CC(=O)Nc1c(C(C)C)cccc1C(C)C)c1cccc2c1OCO2 (centres unmarked) [Example 1, N-(2,6-diisopropylphenyl)-3-(2,3-methylenedioxyphenyl)octanamide]
7 | 139 nM | CCCCC[C@@H](CNC(=O)Nc1c(OCC)ccc2c1CCCC2)c1cccc2c1OCO2 [Example 22, (R)-1-[2-(2,3-methylenedioxyphenyl)heptyl]-3-(2-ethoxy-5,6,7,8-tetrahydronaphthalene-1-yl) urea]

Further lines, the compound ahead of its results:

Row | Compound | IC50
8 | CCCCC[C@@H](CNC(=O)Nc1c(N(C)C)ncnc1N(C)C)c1cccc2c1OCO2 [Example 25, (R)-1-[2-(2,3-methylenedioxyphenyl)heptyl]-3-[4,6-bis (dimethylamino)pyrimidine-5-yl]urea] | 57 nM
9 | CCCCC[C@@H](CNC(=O)Nc1c(OC(C)C)c(C)nn1-c1ccccc1)c1cccc2c1OCO2 [Example 31, (R)-1-[2-(2,3-methylenedioxyphenyl)heptyl]-3-[3-methyl-4-(1-methylethoxy)-1-phenylpyrazole-5-yl]urea] | 28 nM
10 | CCCCC[C@@H](CNC(=O)Nc1c(OCC)ncnc1N(C)C)c1cccc2c1OCO2 [Example 30, (R)-1-[2-(2,3-methylenedioxyphenyl)heptyl]-3-(4-dimethylamino-6-ethoxypyrimidine-5-yl) urea] | 109 nM
11 | CCCCCC(CCC(=O)Nc1c(C(C)C)cccc1C(C)C)c1cccc2c1OCO2 (centres unmarked) [Example 8, N-(2,6-Diisopropylphenyl)-4-(2,3-methylenedioxyphenyl)nonanamide] | 10 nM
12 | CCCCC[C@@H](CNC(=O)Nc1c(OCC)ccc2c1CCC2)c1cccc2c1OCO2 [Example 23, (R)-1-[2-(2,3-methylenedioxyphenyl)heptyl]-3-(5-ethoxyindane-4-yl) urea] | 195 nM
13 | CCCCC[C@@H](CNC(=O)Nc1cccc2c1OC(C)(C)C2)c1cccc2c1OCO2 [Example 24, (R)-1-[2-(2,3-methylenedioxyphenyl)heptyl]-3-(2,3-dihydro-2,2-dimethylbenzofuran-7-yl) urea] | 230 nM
14 | CCCCC[C@@H](CNC(=O)Nc1c(N2CCCC2)ncnc1N1CCCC1)c1cccc2c1OCO2 [Example 26, (R)-1-[2-(2,3-methylenedioxyphenyl)heptyl]-3-(4,6-dipyrrolidinopyrimidine-5-yl) urea] | 175 nM
15 | CCCCC[C@@H](CNC(=O)Nc1c(OC)ccc2c1CCCC2)c1cccc2c1OCO2 [Example 21, (R)-1-[2-(2,3-methylenedioxyphenyl)heptyl]-3-(2-methoxy-5,6,7,8-tetrahydronaphthalene-1-yl) urea] | 154 nM
16 | CCCCC[C@@H](CNC(=O)Nc1c(OC(C)C)ccc2c1CCCC2)c1cccc2c1OCO2 [Example 20, (R)-1-[2-(2,3-methylenedioxyphenyl)heptyl]-3-(2-isopropoxy-5,6,7,8-tetrahydronaphthalene-1-yl) urea] | 37 nM
17 | CCCCC(CC(=O)Nc1c(C(C)C)cccc1C(C)C)c1cccc(OC)c1OC (centres unmarked) [Example 3, N-(2,6-Diisopropylphenyl)-3-(2,3-dimethoxyphenyl) heptanamide] | 18 nM
18 | CCCCCCC(CC(=O)Nc1c(C(C)C)cccc1C(C)C)c1cccc(OC)c1OC (centres unmarked) [Example 4, N-(2,6-Diisopropylphenyl)-3-(2,3-dimethoxyphenyl) nonanamide] | 6.5 nM
19 | CCCCCC(CC(=O)Nc1c(C(C)C)cccc1C(C)C)c1cc(C(C)=O)cc(OC)c1OC (centres unmarked) [Example 10, N-(2,6-Diisopropylphenyl)-3-(5-acetyl-2,3-dimethoxyphenyl) octanamide] | 7.6 nM
20 | CCCCC[C@@H](CNC(=O)Nc1c(OC(C)C)c(C)nn1C(C)(C)C)c1cccc2c1OCO2 [Example 34, (R)-1-[2-(2,3-methylenedioxyphenyl)heptyl]-3-[1-(1,1-dimethylethyl)-3-methyl-4-(1-methylethoxy)pyrazole-5-yl]urea] | 106 nM
